Structures are written as SMILES.

This is an account of results in patent US11173162B2, “Bicyclic heterocycles as FGFR4 inhibitors” (Incyte Corporation, priority 2015, dated 2021).

In the first assay the test system is FGFR3 enzyme. Description: FGFR Enzymatic Assay (FRET peptide phosphorylation), FGFR3. The class given is biochemical. The note with it: IC50 ratio showing FGFR3 selectivity; Table 2A, pre-incubated for 4 hours. As for the experimental part: (§1) The inhibitor potency of the exemplified compounds was measured in an enzyme assay that measures peptide phosphorylation using FRET measurements to detect product formation. Inhibitors were serially diluted in DMSO and a volume of 0.5 μL was transferred to the wells of a 384-well plate.
(§2) GraphPad prism3 was used to analyze the data.
Regarding `COc1cc(OC)c(F)c(N2Cc3cnc(-c4cn(C5CCN(C)C5)nc4C)cc3C3(CC3)C2=O)c1F` (stereo not drawn) [Example 163, 2′-(2,6-difluoro-3,5-dimethoxyphenyl)-6′-(3-methyl-1-(1-methylpyrrolidin-3-yl)-1H-pyrazol-4-yl)-1′H-spiro[cyclopropane-1,4′-[2,7]naphthyridin]-3′(2′H)-one], the FGFR1/FGFR3 was more than 3 and the FGFR4/FGFR3 was more than 3.

Consider `COc1cc(OC)c(F)c(N2Cc3cnc(-c4cn(CCN(C)C)nc4C)cc3C3(CC3)C2=O)c1F` [Example 164, 2′-(2,6-difluoro-3,5-dimethoxyphenyl)-6′-(1-(2-(dimethylamino)ethyl)-3-methyl-1H-pyrazol-4-yl)-1′H-spiro[cyclopropane-1,4′-[2,7]naphthyridin]-3′(2′H)-one], for which the FGFR1/FGFR3 is recorded as more than 3 and the FGFR4/FGFR3 was more than 3.

With `COc1cc(OC)c(F)c(N2Cc3cnc(-c4cn(CCC5CCNCC5)nc4C)cc3C3(CC3)C2=O)c1F` [Example 165, 2′-(2,6-difluoro-3,5-dimethoxyphenyl)-6′-(3-methyl-1-(2-(piperidin-4-yl)ethyl)-1H-pyrazol-4-yl)-1′H-spiro[cyclopropane-1,4′-[2,7]naphthyridin]-3′(2′H)-one], the FGFR1/FGFR3 was more than 3 and the FGFR4/FGFR3 is on record as more than 3.

For the molecule `COc1cc(OC)c(F)c(N2Cc3cnc(-c4cnn(CC5CN(S(C)(=O)=O)C5)c4)cc3C3(CC3)C2=O)c1F` [Example 166, 2′-(2,6-difluoro-3,5-dimethoxyphenyl)-6′-(1-((1-(methylsulfonyl)azetidin-3-yl)methyl)-1H-pyrazol-4-yl)-1′H-spiro[cyclopropane-1,4′-[2,7]naphthyridin]-3′(2′H)-one], the FGFR1/FGFR3 is on record as more than 3 and the FGFR4/FGFR3 is on record as more than 3.

As for `COc1cc(OC)c(F)c(N2Cc3cnc(-c4cnn(CC5CN(C(C)=O)C5)c4)cc3C3(CC3)C2=O)c1F` [Example 167, 6′-(1-((1-acetylazetidin-3-yl)methyl)-1H-pyrazol-4-yl)-2′-(2,6-difluoro-3,5-dimethoxyphenyl)-1′H-spiro[cyclopropane-1,4′-[2,7]naphthyridin]-3′(2′H)-one], the FGFR1/FGFR3 was more than 3 and the FGFR4/FGFR3 is listed as more than 3.

As to `CCN1C(=O)N(c2c(F)c(OC)cc(OC)c2F)Cc2cnc(-c3cn(CC)nc3C)cc21` [Example 168, 3-(2,6-difluoro-3,5-dimethoxyphenyl)-1-ethyl-7-(1-ethyl-3-methyl-1H-pyrazol-4-yl)-3,4-dihydropyrido[4,3-d]pyrimidin-2(1H)-one], the FGFR1/FGFR3 is more than 5 and the FGFR4/FGFR3 is on record as more than 3.

In the case of `CCN1C(=O)N(c2c(F)c(OC)cc(OC)c2F)Cc2cnc(-c3cnn(C)c3)cc21` [Example 169, 3-(2,6-difluoro-3,5-dimethoxyphenyl)-1-ethyl-7-(1-methyl-1H-pyrazol-4-yl)-3,4-dihydropyrido[4,3-d]pyrimidin-2(1H)-one], the FGFR1/FGFR3 is given as more than 3 and the FGFR4/FGFR3 is recorded as more than 5.

Consider `CCNC(=O)c1ccc(-c2cc3c(cn2)CN(c2c(F)c(OC)cc(OC)c2F)C(=O)N3CC)cn1` [Example 175, 5-(3-(2,6-difluoro-3,5-dimethoxyphenyl)-1-ethyl-2-oxo-1,2,3,4-tetrahydropyrido[4,3-d]pyrimidin-7-yl)-N-ethylpicolinamide], for which the FGFR1/FGFR3 is reported as more than 10 and the FGFR4/FGFR3 was more than 5.

Take `CCN1C(=O)N(c2c(F)c(OC)cc(OC)c2F)Cc2cnc(-c3ccc(C(=O)NC4CC4)nc3)cc21` [Example 176, N-cyclopropyl-5-(3-(2,6-difluoro-3,5-dimethoxyphenyl)-1-ethyl-2-oxo-1,2,3,4-tetrahydropyrido[4,3-d]pyrimidin-7-yl)picolinamide]: the FGFR1/FGFR3 is listed as more than 10 and the FGFR4/FGFR3 is more than 5.

Regarding `CCN1C(=O)N(c2c(F)c(OC)cc(OC)c2F)Cc2cnc(-c3ccc(C(=O)NCCO)nc3)cc21` [Example 177, 5-(3-(2,6-difluoro-3,5-dimethoxyphenyl)-1-ethyl-2-oxo-1,2,3,4-tetrahydropyrido[4,3-d]pyrimidin-7-yl)-N-(2-hydroxyethyl)picolinamide], the FGFR1/FGFR3 is more than 5 and the FGFR4/FGFR3 is given as more than 10.

For the molecule `CCN1C(=O)N(c2c(F)c(OC)cc(OC)c2F)Cc2cnc(-c3ccc(C(=O)NC(C)C)nc3)cc21` [Example 178, 5-(3-(2,6-difluoro-3,5-dimethoxyphenyl)-1-ethyl-2-oxo-1,2,3,4-tetrahydropyrido[4,3-d]pyrimidin-7-yl)-N-isopropylpicolinamide], the FGFR1/FGFR3 is more than 5 and the FGFR4/FGFR3 is on record as more than 5.

On to `CCCNC(=O)c1ccc(-c2cc3c(cn2)CN(c2c(F)c(OC)cc(OC)c2F)C(=O)N3CC)cn1` [Example 179, 5-(3-(2,6-difluoro-3,5-dimethoxyphenyl)-1-ethyl-2-oxo-1,2,3,4-tetrahydropyrido[4,3-d]pyrimidin-7-yl)-N-propylpicolinamide], for which the FGFR1/FGFR3 is more than 5 and the FGFR4/FGFR3 is recorded as more than 10.

In the case of `CCN1C(=O)N(c2c(F)c(OC)cc(OC)c2F)Cc2cnc(-c3ccc(CC#N)cc3)cc21` [Example 180, 2-(4-(3-(2,6-difluoro-3,5-dimethoxyphenyl)-1-ethyl-2-oxo-1,2,3,4-tetrahydropyrido[4,3-d]pyrimidin-7-yl)phenyl)acetonitrile], the FGFR1/FGFR3 was more than 5 and the FGFR4/FGFR3 is given as more than 5.

On to `CCN1C(=O)N(c2c(F)c(OC)cc(OC)c2F)Cc2cnc(-c3ccc(C4(C#N)CCC4)cc3)cc21` [Example 181, 1-(4-(3-(2,6-difluoro-3,5-dimethoxyphenyl)-1-ethyl-2-oxo-1,2,3,4-tetrahydropyrido[4,3-d]pyrimidin-7-yl)phenyl)cyclobutanecarbonitrile], for which the FGFR1/FGFR3 is more than 5 and the FGFR4/FGFR3 is on record as more than 10.

Consider `CCN1C(=O)N(c2c(F)c(OC)cc(OC)c2F)Cc2cnc(-c3ccc(N4CCOCC4)nc3)cc21` [Example 182, 3-(2,6-difluoro-3,5-dimethoxyphenyl)-1-ethyl-7-(6-morpholinopyridin-3-yl)-3,4-dihydropyrido[4,3-d]pyrimidin-2(1H)-one], for which the FGFR1/FGFR3 is given as more than 5 and the FGFR4/FGFR3 is on record as more than 5.

In the case of `CCN1C(=O)N(c2c(F)c(OC)cc(OC)c2F)Cc2cnc(-c3ccc(C4(C#N)CC4)cc3)cc21` [Example 183, 1-(4-(3-(2,6-difluoro-3,5-dimethoxyphenyl)-1-ethyl-2-oxo-1,2,3,4-tetrahydropyrido[4,3-d]pyrimidin-7-yl)phenyl)cyclopropanecarbonitrile], the FGFR1/FGFR3 is given as more than 3 and the FGFR4/FGFR3 is listed as more than 10.

Regarding `CCN1C(=O)N(c2c(F)c(OC)cc(OC)c2F)Cc2cnc(-c3ccc(C(N)=O)nc3)cc21` [Example 184, 5-(3-(2,6-difluoro-3,5-dimethoxyphenyl)-1-ethyl-2-oxo-1,2,3,4-tetrahydropyrido[4,3-d]pyrimidin-7-yl)picolinamide], the FGFR1/FGFR3 is on record as more than 5 and the FGFR4/FGFR3 was more than 5.

On to `COc1cc(OC)c(F)c(N2Cc3cnc(-c4ccncc4)cc3C3(CC3)C2=O)c1F` [Example 185, 2′-(2,6-difluoro-3,5-dimethoxyphenyl)-6′-(pyridin-4-yl)-1′H-spiro[cyclopropane-1,4′-[2,7]naphthyridin]-3′(2′H)-one], for which the FGFR1/FGFR3 is on record as more than 3 and the FGFR4/FGFR3 was more than 3.

As for `COc1cc(OC)c(F)c(N2Cc3cnc(-c4cnn(C)c4)cc3C3(CC3)C2=O)c1F` [Example 186, 2′-(2,6-difluoro-3,5-dimethoxyphenyl)-6′-(1-methyl-1H-pyrazol-4-yl)-1′,2′-dihydro-3′H-spiro[cyclopropane-1,4′-[2,7]naphthyridin]-3′-one], the FGFR1/FGFR3 was more than 5 and the FGFR4/FGFR3 was more than 5.

`COc1cc(OC)c(F)c(N2Cc3cnc(-c4ccc(C5(C#N)CCC5)nc4)cc3N(Cc3nnc(C)o3)C2=O)c1F` [Example 187, 1-(5-{3-(2,6-difluoro-3,5-dimethoxyphenyl)-1-[(5-methyl-1,3,4-oxadiazol-2-yl)methyl]-2-oxo-1,2,3,4-tetrahydropyrido[4,3-d]pyrimidin-7-yl}pyridin-2-yl)cyclobutanecarbonitrile]: the FGFR1/FGFR3 is reported as more than 10 and the FGFR4/FGFR3 is recorded as more than 10.

Take `COc1cc(OC)c(F)c(N2Cc3cnc(-c4ccc(C5(C#N)CCC5)nc4)cc3N(c3cnn(C)c3)C2=O)c1F` [Example 188, 1-{5-[3-(2,6-difluoro-3,5-dimethoxyphenyl)-1-(1-methyl-1H-pyrazol-4-yl)-2-oxo-1,2,3,4-tetrahydropyrido[4,3-d]pyrimidin-7-yl]pyridin-2-yl}cyclobutanecarbonitrile]: the FGFR1/FGFR3 is reported as more than 5 and the FGFR4/FGFR3 is reported as more than 5.

For a further assay, the target named is FGFR4 (Homo sapiens (Human), UniProt P22455). Description: FGFR Enzymatic Assay (FRET peptide phosphorylation), FGFR4. The class given is biochemical. The note with it: IC50 ratio showing FGFR4 selectivity; Table 2, pre-incubated for 4 hours. As to the method: as §1
Sequence of FGFR4 (P22455 22-802): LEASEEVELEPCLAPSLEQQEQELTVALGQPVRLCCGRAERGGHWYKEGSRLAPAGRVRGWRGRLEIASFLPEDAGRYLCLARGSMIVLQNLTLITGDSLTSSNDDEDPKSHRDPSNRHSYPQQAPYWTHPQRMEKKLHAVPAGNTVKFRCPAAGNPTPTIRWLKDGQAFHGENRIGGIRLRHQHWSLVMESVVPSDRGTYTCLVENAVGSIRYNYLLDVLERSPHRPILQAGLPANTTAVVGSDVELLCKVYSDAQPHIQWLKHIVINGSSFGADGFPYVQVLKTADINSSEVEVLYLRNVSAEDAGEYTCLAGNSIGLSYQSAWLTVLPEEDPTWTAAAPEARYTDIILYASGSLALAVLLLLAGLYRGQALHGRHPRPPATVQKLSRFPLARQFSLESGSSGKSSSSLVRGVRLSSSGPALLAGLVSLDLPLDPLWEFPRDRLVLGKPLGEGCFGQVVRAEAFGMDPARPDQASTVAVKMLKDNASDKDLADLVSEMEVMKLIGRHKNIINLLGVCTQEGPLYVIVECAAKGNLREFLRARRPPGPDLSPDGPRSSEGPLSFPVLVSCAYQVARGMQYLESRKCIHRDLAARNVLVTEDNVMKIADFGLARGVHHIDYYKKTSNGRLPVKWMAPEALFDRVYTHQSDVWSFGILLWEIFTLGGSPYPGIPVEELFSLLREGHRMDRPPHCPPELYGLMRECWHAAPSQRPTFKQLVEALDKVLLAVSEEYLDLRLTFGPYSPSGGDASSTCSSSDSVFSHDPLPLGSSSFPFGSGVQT
The enzymes were purchased from Millipore or Invitrogen.
as §2
`COc1cc(OC)c(F)c(N2Cc3cnc(-c4cc(N)ccc4C)cc3C3(CC3)C2=O)c1F` [Example 1, 6′-(5-amino-2-methylphenyl)-2′-(2,6-difluoro-3,5-dimethoxyphenyl)-1^1H-spiro[cyclopropane-1,4′-[2,7]naphthyridin]-3′(2′H)-one]: the FGFR1/FGFR4 was more than 25, the FGFR2/FGFR4 is more than 25 and the FGFR3/FGFR4 is more than 25.

In the case of `COc1cc(OC)c(F)c(N2Cc3cnc(-c4cc(N)c(F)cc4C)cc3C3(CC3)C2=O)c1F` [Example 2, 6′-(5-amino-4-fluoro-2-methylphenyl)-2′-(2,6-difluoro-3,5-dimethoxyphenyl)-1′H-spiro[cyclopropane-1,4′-[2,7]naphthyridin]-3′(2′H)-one], the FGFR1/FGFR4 is more than 10, the FGFR2/FGFR4 is reported as more than 10 and the FGFR3/FGFR4 is recorded as more than 10.

The same assay, now with this note: ratio of IC50 data showing FGFR4 selectivity; Table 4, pre-incubated for 5 to 10 minutes.
`COc1cc(OC)c(F)c(N2Cc3cnc(-c4cc(N)ccc4C)cc3C3(CC3)C2=O)c1F` [Example 1, 6′-(5-amino-2-methylphenyl)-2′-(2,6-difluoro-3,5-dimethoxyphenyl)-1^1H-spiro[cyclopropane-1,4′-[2,7]naphthyridin]-3′(2′H)-one]: the FGFR1/FGFR4 is reported as more than 25, the FGFR2/FGFR4 is given as more than 25 and the FGFR3/FGFR4 is listed as more than 50.

Consider `COc1cc(OC)c(F)c(N2Cc3cnc(-c4cc(N)c(F)cc4C)cc3C3(CC3)C2=O)c1F` [Example 2, 6′-(5-amino-4-fluoro-2-methylphenyl)-2′-(2,6-difluoro-3,5-dimethoxyphenyl)-1′H-spiro[cyclopropane-1,4′-[2,7]naphthyridin]-3′(2′H)-one], for which the FGFR1/FGFR4 is more than 10, the FGFR2/FGFR4 is on record as more than 10 and the FGFR3/FGFR4 is more than 10.
